# According to ChEMBL document CHEMBL1130834, “2(1H)-quinolinone derivatives as novel anti-arteriostenotic agents showing anti-thrombotic and anti-hyperplastic activities” (Bioorg Med Chem Lett, 1998):
# What was measured:
# Oryctolagus cuniculus [1] = species: Oryctolagus cuniculus; experiment: In vitro inhibitory activity against collagen induced rabbit platelet aggregation; type: functional
# Rattus norvegicus [2] = experiment: In vivo anti-hyperplastic activity was evaluated by the inhibition of balloon injury model in rats at a dose of 30 mg/kg (p.o.); type: functional; conditions: for inhibition in vivo at 30 mg/kg: Rattus norvegicus, po
# Mus musculus [3] = experiment: In vivo anti-thrombotic activity was evaluated by the inhibition of pulmonary thromboembolism model in mice at a dose of 30 mg/kg (p.o.); type: functional; conditions: route oral
# [4] = (§1) In vitro inhibitory activity against Adenosine diphosphate (ADP) induced rabbit platelet aggregation; type: functional, Oryctolagus cuniculus
# Rattus norvegicus [5] = experiment: In vivo anti-hyperplastic activity was evaluated by the inhibition of balloon injury model in rats at a dose of 10 mg/kg (p.o.); type: functional; conditions: route oral
# Mus musculus [6] = experiment: In vivo anti-thrombotic activity was evaluated by the inhibition of pulmonary thromboembolism model in mice at a dose of 10 mg/kg (p.o.); type: functional; conditions: route oral
# Oryctolagus cuniculus [7] = species: Oryctolagus cuniculus; experiment: as §1; type: functional
IC50 (Oryctolagus cuniculus [1]; Oryctolagus cuniculus) [µM],IC50 ([4]; Oryctolagus cuniculus) [µM],IC50 (Oryctolagus cuniculus [1]) [µM],IC50 [4] [µM],IC50 (Oryctolagus cuniculus [7]) [µM],Structure (SMILES),inhibition in vivo at 30 mg/kg (Rattus norvegicus [2]) [%],inhibition in vivo at 30 mg/kg (Mus musculus [3]) [%],inhibition in vivo at 10 mg/kg (Rattus norvegicus [5]) [%],inhibition in vivo at 10 mg/kg (Mus musculus [6]) [%],"Inhibition (Rattus norvegicus [2]; route oral, 30 mg/kg) [%]"
1.8,0.27,,,,O=C(NCCCOc1ccc2nc(O)ccc2c1)N(C1CCCC1)[C@H]1CCCC[C@@H]1O,20,78,,,
0.03,0.08,,,,O=C(NCCCOc1ccc2nc(O)ccc2c1)N(C1CCCCCCC1)[C@H]1CCCC[C@@H]1O,27,100,,,
2.8,3,,,,O=C(NCCCOc1ccc2nc(O)ccc2c1)N(C1CC1)[C@@H]1CCC[C@@H](O)C1,0,20,,,
2.2,2.4,,,,O=C(NCCCOc1ccc2nc(O)ccc2c1)N(C1CC1)[C@H]1CCCC[C@@H]1O,13,100,1,29,
3.1,3.8,,,,O=C(NCCCOc1ccc2nc(O)ccc2c1)N(C1CC1)[C@H]1CC[C@H](O)CC1,7,0,,,
16,15,,,,CCN(CCCOc1ccc2nc(O)ccc2c1)C(=O)N(C)C1CCCCC1,12,58,,,
,,3.1,2.5,,O=C(NCCCOc1ccc2[nH]c(=O)ccc2c1)N(C1CC1)[C@@H]1CCCC[C@H]1O (stereo in doubt; 1d) [K-134],,,,,29
3.5,2.5,,,,O=C(NCCCOc1ccc2nc(O)ccc2c1)N(C1CC1)[C@@H]1CCC[C@H]1O,23,67,,,
3.5,0.71,,,,CCCCO[C@H]1CCCC[C@@H]1N(C(=O)NCCCOc1ccc2nc(O)ccc2c1)C1CC1,19,33,,,
3.3,2.3,,,,O=C(NCCCOc1ccc2nc(O)ccc2c1)N(C1CC1)[C@H]1CCCC[C@H]1O,19,100,,,
0.15,0.19,,,,O=C(NCCCOc1ccc2nc(O)ccc2c1)N(C1CCCCC1)[C@H]1CCCC[C@@H]1O,18,57,,,
2.2,2.3,,,,O=C(NCCCOc1ccc2[nH]c(=O)ccc2c1)N(C1CC1)[C@@H]1CCCC[C@H]1O (stereo in doubt; 1p) [K-134],24,100,26,88,
> 1000,> 1000,,,,CC(=O)Oc1ccccc1C(=O)O [ASPIRIN],16,33,,,
15,3.9,,,,CN(C(=O)NCCCOc1ccc2nc(O)ccc2c1)[C@@H]1CCCC[C@H]1O,10,18,,,
2.7,,,,2.6,CN(C(=O)NCCCOc1ccc2nc(O)ccc2c1)C1CCCCC1,15,21,,,
31,29,,,,O=C1CCc2cc(OCCCCc3nnnn3C3CCCCC3)ccc2N1 [CILOSTAZOL],12,82,,,
0.03,0.12,,,,O=C(NCCCOc1ccc2nc(O)ccc2c1)N(C1CCCCCC1)[C@H]1CCCC[C@@H]1O,11,69,,,
2.4,2.2,,,,O=C(NCCCOc1ccc2nc(O)ccc2c1)N(C1CCCCC1)C1CC1,15,100,,,
2.2,2.4,,,,CN(C(=O)CCCOc1ccc2[nH]c(=O)ccc2c1)C1CCCCC1 [CILOSTAMIDE],42,84,,,
2.8,2.6,,,,O=C(NCCCOc1ccc2nc(O)ccc2c1)N(C1CC1)[C@@H]1CCCCC[C@H]1O,0,44,,,
